The results in this text go back to BindingDB's records for doi:10.1016/j.bmcl.2013.01.056 (Fudan University, 2013).

pIC50: −log10 of the molar value.

This test has as its target Signal transducer and activator of transcription 3 (Homo sapiens, UniProt P40763). Briefly: Inhibition of IL-6-induced STAT3 pathway in human HepG2 cells by luciferase reporter gene assay.

Signal transducer and activator of transcription 3, sequence (P40763 whole entry): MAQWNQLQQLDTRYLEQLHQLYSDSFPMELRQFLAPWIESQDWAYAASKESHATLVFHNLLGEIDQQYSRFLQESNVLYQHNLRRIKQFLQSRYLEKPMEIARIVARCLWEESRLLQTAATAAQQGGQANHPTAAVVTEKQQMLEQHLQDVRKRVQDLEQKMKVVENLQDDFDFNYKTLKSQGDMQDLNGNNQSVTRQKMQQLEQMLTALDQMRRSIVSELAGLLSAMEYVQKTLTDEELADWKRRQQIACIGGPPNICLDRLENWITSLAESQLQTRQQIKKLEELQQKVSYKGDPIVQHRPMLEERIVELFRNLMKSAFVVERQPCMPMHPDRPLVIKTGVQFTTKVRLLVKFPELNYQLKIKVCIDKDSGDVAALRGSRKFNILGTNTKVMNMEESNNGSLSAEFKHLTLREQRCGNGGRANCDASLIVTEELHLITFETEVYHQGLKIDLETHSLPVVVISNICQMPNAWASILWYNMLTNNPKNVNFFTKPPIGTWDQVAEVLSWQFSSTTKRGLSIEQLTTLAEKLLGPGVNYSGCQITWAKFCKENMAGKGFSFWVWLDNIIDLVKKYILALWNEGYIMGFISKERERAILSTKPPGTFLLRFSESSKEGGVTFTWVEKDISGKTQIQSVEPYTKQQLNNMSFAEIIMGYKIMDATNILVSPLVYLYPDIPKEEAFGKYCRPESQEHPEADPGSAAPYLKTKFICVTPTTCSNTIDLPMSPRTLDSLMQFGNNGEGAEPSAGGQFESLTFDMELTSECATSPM

What is called pIC50 is the negative decadic logarithm of the IC50, by convention in mol/L. `OCCNCc1cc(Br)ccc1OCc1ccc(Cl)cc1` showed a pIC50 of 4.22.

As to `NS(=O)(=O)c1ccc(NCc2cc(Cl)ccc2OCc2ccccc2)cc1`, the pIC50 is 4.61.

`Oc1ccc(NCc2cc(Cl)ccc2OCc2ccc(Cl)cc2)cc1` gave a pIC50 of 4.57.
